From patent US11725015B2, “Macrocyclic compound and uses thereof” (President and Fellows of Harvard College, priority 2017, dated 2023) come the findings set out here.

Assay [1] concerns OSC-19 subcutaneous xenograft. The assay is described as follows: Antitumor activity against OSC-19 subcutaneous xenograft model in mice as monotherapy. Conditions: Q7D×2. In kind it is in vivo. As for the experimental part:
A human squamous cell carcinoma of the head and neck (SCCHN) cell line OSC-19, which had been cultured in an DMEM/Ham's F-12 (1:1) medium containing 10% FBS, and penicillin and streptomycin, was adjusted to a concentration of 1×10^8 cells/ml with PBS to prepare a cell suspension, and the suspension was mixed with Matrigel™ (BD Bioscience, #366237) in a ratio of 1:1 to prepare a cell suspension in a concentration of 5×10^7 cell/mL. The cell suspension was inoculated in a volume of 100 μL into a subcutaneous part of a right flank of nude mice, 5 weeks of ages (CAnN.Cg-Foxnlnu/CrlCrlj, female, Charles River Laboratories Japan, Inc.).
On the basis of the volumes of tumors obtained on the first day of administration, the mice were grouped such that averages of the tumor volumes were substantially equal among the groups. The experiment was conducted on groups each consisting of 6 mice. Test compound was dissolved in saline and intravenously administered at doses from 0.06 mg/kg to 0.18 mg/kg once a week for 2 weeks (Q7D×2 schedule).

Assay [2] relates to FaDu-Luc subcutaneous xenograft. The assay is described as follows: FaDu s.c. xenograft model in combination with radiation. In kind it is in vivo, mice. As for the experimental part: Luciferase-transduced FaDu-Luc cells were established by retrovirus-mediated gene transfer. […]. Then, helper-free recombinant retroviruses were produced by transfecting the above retroviral expression vector together with pGP and pE-Ampho plasmids (Takara Bio; Shiga, Japan), into 293T cells (ATCC; Manassas, USA). Next, FaDu cells were infected with the recombinant retroviruses, and were cultured for two weeks in the presence of puromycin (2 μg/mL). The infected cells were selected from a polyclonal proliferative population of the culture.
A luciferase-transduced human SCCHN cell line FaDu-Luc, which had been cultured in an RPMI-1640 medium containing 10% FBS, and penicillin and streptomycin, was adjusted to a concentration of 5×10^7 cells/mL with Hank's Balanced Salt Solution to prepare a cell suspension. The cell suspension was inoculated in a volume of 100 μL into a subcutaneous part of a right thigh of nude mice, 6 weeks of ages (CAnN.Cg-Foxnlnu/CrlCrlj, female, Charles River Laboratories Japan, Inc.). Thirteen days after the cell inoculation, the tumor volume was analyzed using bioluminescence signal from FaDu-Luc cells. […] The bioluminescence signal was monitored using the IVIS […] series (PerkinElmer, Waltham, Mass.), consisting of a highly sensitive, cooled chargecoupled device camera. […] Data were analyzed using total photon flux emission (photons/second) in the ROIs. […]

For assay [3], the system named is OE21 (human squamous cell carcinoma of the esophagus). Briefly: In vitro antiproliferative activity, OE21. In kind it is cell-based. Conditions: OE21, 72 hours. As for the experimental part: (§1) The in vitro antiproliferative assays for Compound (1) were conducted using a small panel of cancer cell lines including human squamous cell carcinoma of the esophagus (OE21, TE-8), human adenocarcinoma of the esophagus (OE33), and human uterine sarcoma (MES-SA, MES-SA-Dx5-Rx1). All cell lines were cultured in RPMI-1640 medium containing 10% FBS, and penicillin-streptomycin (culture medium), in a 5% CO2 incubator (37° C.). To each well of a 96 well plate (Becton, Dickinson and Company, 353219), 75 μL of cell suspension adjusted to a concentration of 4×10^4 cells/mL with the culture medium was added, and the cells were incubated overnight in a 5% CO2 incubator (37° C.). On the next day, 25 μL of Compound (1) in three-fold dilution series suspended in the culture medium was added to each well, and the resultant was incubated for 72 hours in a 5% CO2 incubator (37° C.). Then, cell viability was determined by CellTiter-Glo® Luminescent Cell Viability Assay (Promega) with 2013 EnVision™ Multilabel Reader (Perkin-Elmer, Wellesley, Mass.). Value of the wells containing cells without adding the test compounds was defined as 100% and the value of the wells containing no cells was defined as 0%. […] The P-gp susceptibility was calculated as the ratio of the IC50 value in MES-SA-Dx5-Rx1 cells, which overexpress P-gp, to the IC50 value in MES-SA cells.

The subject of assay [4] is MES-SA (human uterine sarcoma). Briefly: In vitro antiproliferative activity, MES-SA. In kind it is cell-based. Conditions: 72 hours. As for the experimental part: as §1
Assay [5] deals with MES-SA/Dx5-Rx1 (human uterine sarcoma, overexpress P-gp). The assay is described as follows: In vitro antiproliferative activity, MES-SA/Dx5-Rx1. In kind it is cell-based. Conditions: MES-SA/Dx5-Rx1, 72 hours. As for the experimental part: as §1
The subject of assay [6] is AN3CA (human endometrial cancer) xenograft. Briefly: Antitumor effects in AN3CA endometrial cancer xenograft model in mice as monotherapy. In kind it is in vivo. The settings on record: 180 μg/kg intravenously on Day 1 and Day 8. On the procedure: A human endometrial cancer cell line AN3CA, which had been cultured in an E-MEM containing 10% FBS, and penicillin-streptomycin, was adjusted to a concentration of 1.4×10^8 cells/mL with Hanks' Balanced Salt Solution to prepare a cell suspension, and the suspension was mixed with Geltrex® (Thermo Fisher Scientific Inc., #A1413202) in a ratio of 1:1 to prepare a cell suspension in a concentration of 7×10^7 cells/mL. The cell suspension was inoculated in a volume of 100 μL into a subcutaneous part of a right flank of nude mice, 6 weeks of ages (CAnN.Cg-Foxnlnu/CrlCrlj, female, Charles River Laboratories Japan Inc.). Twelve days after cell inoculation (Day 1), the shortest diameter and the longest diameter of a tumor in each mouse were measured by using an electronic digital caliper (Digimatic™ caliper, Mitutoyo Corporation), so as to calculate the volume of the tumor in accordance with the following calculation formulae: Tumor volume (mm^3)=Longest diameter (mm)×Shortest diameter (mm)×Shortest diameter (mm)/2 Relative tumor volume (RTV)=Tumor volume (day X)/Tumor volume (the first day)
On the basis of the volumes of tumors obtained on Day 1, the mice were grouped such that averages of the tumor volumes were substantially equal among the groups. The experiment was conducted on groups each consisting of five mice. […]

As to `C=C1C[C@@H]2CC[C@@]34C[C@H]5O[C@H]6[C@@H](O3)[C@H]3O[C@H](CC[C@@H]3O[C@H]6C5O4)CC(=O)O[C@@H]3[C@@H](C)[C@@H]4O[C@@H]5C[C@]6(C[C@@H]7O[C@]8(C[C@H](C)[C@@H]9O[C@H](CN)[C@H](O)C[C@@H]9O8)C[C@H](C)[C@@H]7O6)O[C@@H]5C[C@@H]4O[C@H]3C[C@H]3O[C@@H](CC[C@@H]1O2)C[C@@H](C)C3=C` [Compound (1)], the “Tumor Regression (%)” value in assay [1] (0.06 mg/kg intravenously) was 59%; in assay [1] (0.18 mg/kg intravenously), 90%; in assay [2] (0.09 mg/kg on day 1 and 8 + radiation 18 Gy on day 4 and day 11), 97%; in assay [2] (0.09 mg/kg on day 1 and 8, without radiation), 0%. The antiproliferative activity entry in assay [3], in assay [4] and in assay [5] was “potent antiproliferative agent” throughout. The antitumor activity entry in assay [6] was “tumor regression”.
